Laboratory results reported in the CheMixHub ionic liquid set.

Assay: xn = mol fraction of the nth substance listed

OC[C@H]1O[C@H](O[C@H]2[C@H](O)[C@@H](O)C(O)O[C@@H]2CO)[C@H](O)[C@@H](O)[C@@H]1O (stereo partly drawn) + CCCC[n+]1ccn(C)c1.F[P-](F)(F)(F)(F)F + O
viscosity [mPa·s], 100 kPa
Details | 293.15 K | 298.15 K | 303.15 K | 308.15 K | 313.15 K
x2 = 0, x1 = 0.0001791 | 1.019 | 0.9 | 0.807 | 0.721 | 0.657
x2 = 0, x1 = 0.0005383 | 1.027 | 0.911 | 0.816 | 0.733 | 0.667
x2 = 0, x1 = 0.0008971 | 1.038 | 0.922 | 0.827 | 0.742 | 0.675
x2 = 0, x1 = 0.001255 | 1.049 | 0.931 | 0.832 | 0.747 | 0.68
x2 = 0, x1 = 0.001615 | 1.059 | 0.94 | 0.84 | 0.755 | 0.686
x2 = 0.0001835, x1 = 0.001259 | 1.059 | 0.947 | 0.86 | 0.775 | 0.69
x2 = 0.0001835, x1 = 0.00162 | 1.07 | 0.956 | 0.866 | 0.782 | 0.696
x2 = 0.0001836, x1 = 0.0008988 | 1.049 | 0.937 | 0.851 | 0.768 | 0.684
x2 = 0.0001837, x1 = 0.0001798 | 1.03 | 0.92 | 0.834 | 0.751 | 0.667
x2 = 0.0001837, x1 = 0.0005398 | 1.037 | 0.926 | 0.841 | 0.76 | 0.676
x2 = 0.0005376, x1 = 0.001627 | 1.084 | 0.97 | 0.873 | 0.783 | 0.709
x2 = 0.0005378, x1 = 0.001265 | 1.074 | 0.96 | 0.864 | 0.776 | 0.702
x2 = 0.000538, x1 = 0.0009039 | 1.064 | 0.949 | 0.856 | 0.769 | 0.695
x2 = 0.0005382, x1 = 0.0005419 | 1.052 | 0.939 | 0.846 | 0.76 | 0.688
x2 = 0.0005384, x1 = 0.0001809 | 1.043 | 0.93 | 0.837 | 0.752 | 0.68
x2 = 0.0008951, x1 = 0.001637 | 1.098 | 0.976 | 0.878 | 0.792 | 0.713
x2 = 0.0008955, x1 = 0.001273 | 1.089 | 0.967 | 0.869 | 0.784 | 0.707
x2 = 0.0008958, x1 = 0.0009101 | 1.08 | 0.959 | 0.861 | 0.778 | 0.701
x2 = 0.0008961, x1 = 0.0005458 | 1.064 | 0.946 | 0.851 | 0.768 | 0.693
x2 = 0.0008964, x1 = 0.0001816 | 1.057 | 0.938 | 0.842 | 0.761 | 0.685
x2 = 0.00126, x1 = 0.0009162 | 1.084 | 0.969 | 0.876 | 0.79 | 0.708
x2 = 0.00126, x1 = 0.001282 | 1.096 | 0.979 | 0.883 | 0.797 | 0.714
x2 = 0.00126, x1 = 0.001648 | 1.106 | 0.989 | 0.893 | 0.804 | 0.721
x2 = 0.001261, x1 = 0.000183 | 1.061 | 0.948 | 0.858 | 0.774 | 0.693
x2 = 0.001261, x1 = 0.0005491 | 1.071 | 0.959 | 0.866 | 0.781 | 0.7

OCC(F)(F)F + CCCC[n+]1ccn(C)c1.F[P-](F)(F)(F)(F)F
viscosity [mPa·s], 101 kPa
Details | x1 = 0.4632 | x1 = 0.5646 | x1 = 0.7299 | x1 = 0.8308 | x1 = 0.9417 | x1 = 1
278.15 K | 51.3 | 27.28 | 10.69 | 6.23 | 3.8 | 3.28
283.15 K | 40.66 | 22.32 | 8.93 | 5.29 | 3.26 | 2.81
288.15 K | 32.71 | 18.39 | 7.58 | 4.56 | 2.84 | 2.42
293.15 K | 26.74 | 15.36 | 6.51 | 3.97 | 2.49 | 2.11
298.15 K | 22.17 | 13 | 5.65 | 3.49 | 2.21 | 1.84
303.15 K | 18.63 | 11.13 | 4.95 | 3.09 | 1.96 | 1.62
308.15 K | 15.84 | 9.64 | 4.38 | 2.76 | 1.76 | 1.43
313.15 K | 13.61 | 8.42 | 3.9 | 2.49 | 1.57 | 1.27
318.15 K | 11.81 | 7.42 | 3.49 | 2.25 | 1.41 | 1.13
323.15 K | 10.34 | 6.59 | 3.15 | 2.05 | 1.28 | 1.02
328.15 K | 9.12 | 5.89 | 2.85 | 1.88 | 1.18 | 0.925
333.15 K | 8.1 | 5.3 | 2.62 | 1.73 | 1.07 | 0.824

CC[n+]1ccn(C)c1C.O=S(=O)([N-]S(=O)(=O)C(F)(F)F)C(F)(F)F + COC(=O)OC
viscosity [mPa·s], 101.3 kPa
Details | 288.15 K | 293.15 K | 298.15 K | 303.15 K | 308.15 K | 313.15 K
x1 = 0.002023 | 0.685 | 0.64 | 0.601 | 0.564 | 0.532 | 0.502
x1 = 0.003635 | 0.702 | 0.655 | 0.613 | 0.576 | 0.542 | 0.512
x1 = 0.004511 | 0.715 | 0.668 | 0.625 | 0.589 | 0.556 | 0.525
x1 = 0.006328 | 0.731 | 0.682 | 0.637 | 0.599 | 0.563 | 0.531
x1 = 0.007386 | 0.745 | 0.694 | 0.65 | 0.609 | 0.573 | 0.541
x1 = 0.008644 | 0.76 | 0.706 | 0.66 | 0.618 | 0.58 | 0.548
x1 = 0.01069 | 0.79 | 0.73 | 0.681 | 0.638 | 0.603 | 0.569
x1 = 0.01174 | 0.798 | 0.741 | 0.691 | 0.646 | 0.607 | 0.571
x1 = 0.01299 | 0.815 | 0.757 | 0.705 | 0.66 | 0.619 | 0.582
x1 = 0.01405 | 0.825 | 0.766 | 0.714 | 0.666 | 0.625 | 0.588
x1 = 0.01538 | 0.844 | 0.782 | 0.728 | 0.68 | 0.637 | 0.599
x1 = 0.01591 | 0.848 | 0.786 | 0.731 | 0.683 | 0.639 | 0.601
x1 = 0.01645 | 0.854 | 0.791 | 0.736 | 0.687 | 0.643 | 0.605
x1 = 0.01685 | 0.86 | 0.796 | 0.74 | 0.691 | 0.647 | 0.608
x1 = 0.01703 | 0.864 | 0.8 | 0.744 | 0.694 | 0.651 | 0.611
x1 = 0.02124 | 0.91 | 0.841 | 0.781 | 0.727 | 0.681 | 0.639
x1 = 0.02489 | 0.946 | 0.873 | 0.81 | 0.755 | 0.706 | 0.662
x1 = 0.02663 | 0.965 | 0.891 | 0.826 | 0.771 | 0.72 | 0.676
x1 = 0.0275 | 0.978 | 0.903 | 0.837 | 0.78 | 0.729 | 0.683
x1 = 0.03106 | 1.005 | 0.928 | 0.86 | 0.801 | 0.75 | 0.702
x1 = 0.03264 | 1.017 | 0.939 | 0.871 | 0.811 | 0.759 | 0.711
x1 = 0.03671 | 1.052 | 0.972 | 0.902 | 0.839 | 0.784 | 0.735
x1 = 0.04003 | 1.084 | 1.001 | 0.928 | 0.864 | 0.807 | 0.756
x1 = 0.04547 | 1.132 | 1.046 | 0.97 | 0.903 | 0.843 | 0.79
x1 = 0.04804 | 1.154 | 1.065 | 0.989 | 0.92 | 0.859 | 0.805
x1 = 0.05983 | 1.271 | 1.171 | 1.086 | 1.01 | 0.942 | 0.881

CCCC[n+]1ccn(C)c1.N#C[N-]C#N + O + NCCO
100 kPa, x1 = 0.2918, x2 = 0.2557
Details | viscosity [mPa·s]
303 K | 11.73
308 K | 9.99
313 K | 8.59
318 K | 7.46
323 K | 6.53

CCOS(=O)(=O)[O-].CC[NH+]=C(N(C)C)N(C)C + CCCO
100 kPa, x2 = 0
Details | viscosity [mPa·s]
293.15 K | 670
323.15 K | 91

CCCC[n+]1ccn(C)c1.N#C[N-]C#N + O=S(=O)([N-]S(=O)(=O)C(F)(F)F)C(F)(F)F.[Li+]
electrical conductivity [S/m], 101 kPa
Details | x1 = 0.8953 | x1 = 0.9103 | x1 = 0.942 | x1 = 0.9606 | x1 = 0.9799 | x1 = 1
288.15 K | – | 0.381 | 0.469 | 0.538 | 0.595 | 0.596
298.15 K | 0.519 | 0.613 | 0.743 | 0.848 | 0.919 | 0.925
333.15 K | 1.67 | 1.88 | 2.17 | 2.46 | 2.56 | 2.77

CC(=O)[O-].CC[n+]1ccn(C)c1 + Cn1ccnc1 + CCOC(C)=O
298.15 K, 101 kPa, x1 = 1, x2 = 0
Details | electrical conductivity [S/m] | viscosity [mPa·s]
– | 0.297 | 133.9

CCCCCCCCCCCCCC[N+](C)(C)C.[Br-] + O
298.15 K, 101 kPa
Details | viscosity [mPa·s]
x1 = 2.973e-05 | 0.8984
x1 = 4.144e-05 | 0.8992
x1 = 4.541e-05 | 0.9002
x1 = 6.289e-05 | 0.9005
x1 = 6.739e-05 | 0.9013
x1 = 7.262e-05 | 0.9019
x1 = 0.0001005 | 0.9029
x1 = 0.0001191 | 0.9053
x1 = 0.000178 | 0.9083

CC(=O)[O-].CC[n+]1ccn(C)c1 + O=C[C@H](O)[C@@H](O)[C@H](O)[C@H](O)CO
100 kPa
Details | viscosity [mPa·s]
282.5 K, x2 = 0.009453 | 407
282.5 K, x2 = 0.02839 | 517
312.5 K, x2 = 0.1429 | 419
332.2 K, x2 = 0.1429 | 123
373.1 K, x2 = 0.095 | 19
